Data taken from paper PMC11243598, “Inhibition of Monoamine Oxidases by Pyridazinobenzylpiperidine Derivatives” (Molecules, 2024).

What was measured:
[1] = PAMPA for blood-brain barrier permeation; format: in vitro ADME
MAO-B [2] = target: T1, MAO-B (Homo sapiens, UniProt P27338); details: ratio of IC50 values within the S series
T1 sequence (P27338 1-520): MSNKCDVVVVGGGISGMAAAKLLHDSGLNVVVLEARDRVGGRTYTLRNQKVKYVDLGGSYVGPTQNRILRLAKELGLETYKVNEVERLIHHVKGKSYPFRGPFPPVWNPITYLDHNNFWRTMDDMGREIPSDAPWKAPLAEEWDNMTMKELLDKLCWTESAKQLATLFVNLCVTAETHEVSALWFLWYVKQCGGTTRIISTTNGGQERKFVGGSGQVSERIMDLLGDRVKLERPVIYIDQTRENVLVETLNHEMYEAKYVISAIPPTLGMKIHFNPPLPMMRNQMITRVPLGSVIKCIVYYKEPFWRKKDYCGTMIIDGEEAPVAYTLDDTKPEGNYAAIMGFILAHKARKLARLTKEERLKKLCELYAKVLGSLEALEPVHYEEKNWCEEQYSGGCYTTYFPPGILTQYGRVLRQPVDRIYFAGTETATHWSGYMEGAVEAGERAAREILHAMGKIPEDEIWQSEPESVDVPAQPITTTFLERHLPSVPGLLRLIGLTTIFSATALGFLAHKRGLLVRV

MAO-B [3] = target: T1, MAO-B; assay: biochemical
MAO-B [4] = target: T1, MAO-B; assay: Reversibility of MAO-B inhibition by dialysis; format: biochemical; design: purchased Sigma-Aldrich; details: dialysis, compared with safinamide and pargyline
hMAO-A = target: T2, hMAO-A (Homo sapiens, UniProt P21397); assay: Inhibition of recombinant hMAO-A, kynuramine substrate, continuous absorbance method
T2 sequence (P21397 1-527): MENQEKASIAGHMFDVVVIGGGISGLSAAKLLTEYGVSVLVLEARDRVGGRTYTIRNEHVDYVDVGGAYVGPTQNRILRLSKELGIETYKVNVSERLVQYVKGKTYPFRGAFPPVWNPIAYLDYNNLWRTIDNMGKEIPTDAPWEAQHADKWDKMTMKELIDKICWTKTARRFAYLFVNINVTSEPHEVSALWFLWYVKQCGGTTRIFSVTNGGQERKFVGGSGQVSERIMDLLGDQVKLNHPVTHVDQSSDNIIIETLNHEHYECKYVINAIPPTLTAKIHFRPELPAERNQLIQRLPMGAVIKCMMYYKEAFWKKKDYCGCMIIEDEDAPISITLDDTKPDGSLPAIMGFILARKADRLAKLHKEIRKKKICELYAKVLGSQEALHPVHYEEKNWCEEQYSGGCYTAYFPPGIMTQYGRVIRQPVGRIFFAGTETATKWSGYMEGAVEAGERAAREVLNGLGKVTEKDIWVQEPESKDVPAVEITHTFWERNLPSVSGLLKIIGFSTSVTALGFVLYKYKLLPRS

MAO-B [5] = target: T1, MAO-B; assay: MAO-B inhibition kinetics (Lineweaver-Burk and secondary plots); format: biochemical; design: purchased Sigma-Aldrich
MAO-B [6] = details: cited from earlier work

**Q.** For `O=C(Cn1nc(N2CCC(Cc3ccccc3)CC2)ccc1=O)NN=Cc1cccc(Cl)c1` [Compound S5, N′-3-chlorobenzylidene-2-(3-(4-benzylpiperidin-1-yl)-6-oxopyridazin-1(6H)-yl)acetohydrazide], which “Experimental Pe” value ([1]; PAMPA-BBB, pH 7.4) is on record?
**A.** 5.75 ×10⁻⁶ cm/s

**Q.** What about the Papp ([1]; PAMPA-BBB, pH 7.4, read-out: Experimental Pe) of the same molecule?
**A.** 5.75 ± 0.13 ×10⁻⁶ cm/s

**Q.** And the “Prediction (BBB permeation class)” value ([1]; class from Pe)?
**A.** CNS+ (Pe (10^−6 cm·s^−1) > 4.00: CNS+ (high permeation))

**Q.** What about the “Times higher MAO-B inhibition than other derivatives” value (MAO-B [2]) of the same molecule?
**A.** 4.82–53.94 times

**Q.** What about the IC50 (MAO-B [3]) of the same molecule?
**A.** 203 ± 4 nM

**Q.** What about the remaining activity at 10 µM (MAO-B [3]; read-out: Residual Activity at 10 µM (%) MAO-B) of the same molecule?
**A.** -24.6 ± 8.51%

**Q.** And the “Reversibility of MAO-B inhibition” value (MAO-B [4])?
**A.** reversible

**Q.** What about the IC50 (hMAO-A) of the same molecule?
**A.** 3860 ± 770 nM

**Q.** And the remaining activity at 10 µM (hMAO-A; read-out: Residual Activity at 10 µM (%) MAO-A)?
**A.** 25.6 ± 3.85%

**Q.** And the “Type of MAO-B inhibition” value (MAO-B [5]; LB plots, five substrate and three inhibitor concentrations)?
**A.** competitive

**Q.** What about the Ki (MAO-B [5]; secondary plot of LB slopes, benzylamine substrate) of the same molecule?
**A.** 155 ± 50 nM

**Q.** Which IC50 (MAO-B [6]) does the source give for `O=C(Cn1nc(N2CCOCC2)ccc1=O)NN=Cc1ccc(Cl)cc1` [TR16] here?
**A.** 170 nM
